Usually inhibition stands for the change of the read-out against control, counted positive when it falls. The term IC50 denotes the midpoint of a concentration-inhibition curve. In general, Ki refers to the equilibrium dissociation constant of an inhibitor or competing ligand from its target.

Structures are written as SMILES. Entries after “also recorded” stand apart in the source; their conditions may differ.

Assay [1] deals with T1, IDO1 expressed in 4T1 cells (Mus musculus, UniProt P28776).
T1 construct: endogenous in cells; host or cells: 4T1 (IFN-γ induced)
Briefly: IDO1 inhibitory assay in cell lines (kynurenine, IFN-γ induced), 4T1. In kind it is cell-based. The conditions noted are these: 100 μM inhibitor concentration. How it is done:
(§1) IDO1 cellular activity assay was carried out by standard literature protocols. […] First of all, cells grew in high glucose DMEM medium containing 10% FBS and antibiotics. […] Then, 1 × 10^4 cells were seeded in 96-well plates and cultivated in carbon dioxide incubator at 37 °C containing 5% CO2 for 24 h. On day two, each well in the plates were treated with fresh DMEM medium, which contained L-Trp (20 μg/mL), IFN-γ (10 ng/mL), and different concentrations of inhibitor. The plate was incubated for 48 h further. Then, 140 μL of supernatant from each well was transferred into centrifuge tubes correlatively. An amount of 10 μL of 30% trichloroacetic acid (w/v) was added to each tube aimed to precipitate proteins. Subsequently, sample incubation (65 °C, 30 min) was required to make the N′-formylkynurenine (NFK) change into kynurenine which was the final product. Soon afterwards, the sample was centrifuged at 8000 rpm for 10 min. An amount of 100 μL supernatant from each tube was transferred into a new 96-well plate with an equal amount of 2% pDMAB added. The concentration of kynurenine could be measured because it reacts with pDMAB to form a product with a UV–vis absorption at 492 nm. To estimate cell viability, 1 × 10^4 normal cells named L02 were seeded in 96-well flat bottom plates with a final volume of 200 μL of DMEM complete growth medium. After being incubated for 24 h at 37 °C, the culture was replaced by a fresh complete growth medium (200 μL) and four inhibitors (200 μM) were added individually. Then, 48 h later, the medium was replaced by PBS (180 μL) mixed with CCK8 solution (20 μL) in each well. Cell viability was evaluated by testing the OD450nm. Finally, all data in cell experiments were processed by GraphPad Prism 7.00 to obtain the IDO1 inhibitory percentage of each inhibitor in the cells and the cell viability.

Assay [2] deals with IDO1 expressed in CT26 cells (Mus musculus, UniProt P28776). Briefly: IDO1 inhibitory assay in cell lines (kynurenine, IFN-γ induced), CT26. It is filed as cell-based. To be noted: 100 μM inhibitor concentration. How it is done:
as §1

Assay [3] addresses T2, IDO1 expressed in MCF-7 cells (Homo sapiens, UniProt P14902).
T2 construct: endogenous in cells; host or cells: MCF-7 (IFN-γ induced)
Briefly: IDO1 inhibitory assay in cell lines (kynurenine, IFN-γ induced), MCF-7. It is filed as cell-based. To be noted: MCF7; 100 μM inhibitor concentration. How it is done: as §1

For assay [4], the target named is IDO1 expressed in HeLa cells (Homo sapiens, UniProt P14902). The experiment in a line: IDO1 inhibitory assay in cell lines (kynurenine, IFN-γ induced), HeLa. In kind it is cell-based. To be noted: 100 μM inhibitor concentration. How it is done: as §1
For assay [5], the target named is T3, IDO1 (Homo sapiens, UniProt P14902). Briefly: Enzyme-based IDO1 inhibitory assay (UV–vis, product at 320 nm). In kind it is biochemical. The conditions noted are these: for IC50: 100 μM L-Trp, mean ± SD, three determinations; for Ki: L-Trp 50, 100, 150 μM, [S]/[V] against [I] plot (Cornish-Bowden); for Type of Inhibition: position of intersections in [S]/[V] against [I] plot. How it is done: The IDO1 inhibitory assay was performed according to standard literature protocols with some modifications. The UV–vis method was used for evaluating the inhibitory activity of inhibitors against IDO1. Specifically, IDO1 (1 μM, 1 mL) was prepared by phosphate buffer (100 mM, pH 6.5) containing catalase (200 μg/mL), methylene blue (10 μM), and ascorbic acid (10 mM, pH 6.5). Concentrations of every inhibitor were varied from 1 to 200 μM, and experimental samples were incubated at 37 °C for 10 min. Then, a certain concentration of L-Trp was added before monitoring the product at 320 nm by UV–vis spectrophotometer immediately.
The inhibition percent of each inhibitor was determined by [1 − (A/B)] × 100%, where A is the enzymatic activity of IDO1 with inhibitor added and B is the absence of the inhibitor. […] The plot was described by the percent inhibition against Log10 concentration of the inhibitor.
Ki values of inhibitors were obtained by intersection of the three fitted lines in the plot, which was the absolute value of the X-axis value of the intersection. The plot was described by [S]/[V] against inhibitor concentration, where [S] and [V] were the substrate concentration and the reaction velocity, respectively. Furthermore, protein-inhibitor binding modes were determined by the position of the intersections in the plot. Data processing was performed by Origin 7.5.

Assay [6] deals with T3, IDO1. The experiment in a line: Determination of the inhibition types (reversible or irreversible; [V] versus [E] plot). The conditions noted are these: 100 μM inhibitor, 100 μM L-Trp. In kind it is biochemical. How it is done: Based on the results of UV–vis spectra, the determination of inhibitory types was carried out according to the reference. The inhibitor was defined as reversible if the fitted lines were intersected in the plot (Figure 4A).
Different concentrations of IDO1 (1 mL) were prepared with 100 mM phosphate buffer (pH 6.5) containing methylene blue (10 μM), catalase (200 μg/mL), and ascorbic acid (10 mM, pH 6.5). Each sample was incubated at 37 °C for 10 min. An amount of 100 μM L-Trp was added before measuring by UV–vis spectrophotometer at 320 nm. The only difference for the other set of groups was 100 μM inhibitor was added in each sample before incubating. The data were analyzed by Origin 7.5, and plot of reaction rate [V] versus enzyme amount [E] was proposed using linear fit. The determination of inhibitory types was based on the linear trend of the fitted plot.

Chain of IDO1 expressed in CT26 cells (P28776 whole entry): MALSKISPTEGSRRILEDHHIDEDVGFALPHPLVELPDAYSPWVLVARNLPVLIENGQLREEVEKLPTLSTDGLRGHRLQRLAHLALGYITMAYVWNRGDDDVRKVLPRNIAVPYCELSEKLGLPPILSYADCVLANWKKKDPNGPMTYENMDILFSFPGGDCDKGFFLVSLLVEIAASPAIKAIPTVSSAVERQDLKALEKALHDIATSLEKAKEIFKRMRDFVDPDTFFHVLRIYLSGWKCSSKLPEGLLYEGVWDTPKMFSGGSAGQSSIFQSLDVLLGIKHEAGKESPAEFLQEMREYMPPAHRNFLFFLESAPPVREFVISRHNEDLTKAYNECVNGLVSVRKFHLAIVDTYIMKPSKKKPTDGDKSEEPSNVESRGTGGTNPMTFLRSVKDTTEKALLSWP
T1 sequence (P28776 whole entry): as above
Chain of IDO1 expressed in HeLa cells (P14902 whole entry): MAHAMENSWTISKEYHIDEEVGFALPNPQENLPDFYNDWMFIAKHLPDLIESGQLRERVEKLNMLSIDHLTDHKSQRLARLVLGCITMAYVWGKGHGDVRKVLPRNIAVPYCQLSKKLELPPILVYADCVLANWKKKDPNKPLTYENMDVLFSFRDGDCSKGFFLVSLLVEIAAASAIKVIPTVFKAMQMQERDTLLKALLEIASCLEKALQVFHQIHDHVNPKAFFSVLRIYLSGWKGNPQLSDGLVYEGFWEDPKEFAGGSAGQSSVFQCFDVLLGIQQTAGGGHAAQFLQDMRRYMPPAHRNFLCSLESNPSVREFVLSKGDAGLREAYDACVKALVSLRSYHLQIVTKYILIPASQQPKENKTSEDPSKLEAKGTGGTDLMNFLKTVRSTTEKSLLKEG
T2 sequence (P14902 whole entry): as above
T3 sequence (P14902 whole entry): as above

As for `COC(=O)[C@H]1N[C@@H](c2ccccc2)[C@@]2(C(=O)Nc3ccccc32)[C@@H]1c1ccccc1` [inhibitor 1], the inhibition at 100 µM in assay [1] was 2.6 ± 0.6%; in assay [2], 3.7 ± 0.8%; in assay [3], 23.7 ± 2%; in assay [4], 25.5 ± 1.5%. At IDO1 [5], this compound registered an IC50 of 25.2 ± 3.6 µM. For the same compound, at IDO1 [5], the Ki amounted to 42.3 ± 0.8 µM. In addition, on IDO1 [5], the “Type of Inhibition” value is reported as “Uncompetitive”.
On to `COC(=O)[C@H]1N[C@@H](c2ccccc2)[C@@]2(C(=O)Nc3cc(C)ccc32)[C@@H]1c1ccccc1` [inhibitor 2], for which the inhibition at 100 µM worked out at 4.2 ± 1% in assay [1], 4.2 ± 0.5% in assay [2], 22.4 ± 0.4% in assay [3] and 27.1 ± 2.1% in assay [4]. The compound also displayed a half-maximal inhibitory concentration (IC50) against IDO1 [5] of 29.4 ± 1.3 µM. The same compound gave a Ki at IDO1 [5] of 49.5 ± 6 µM. Besides, the “Type of Inhibition” value at IDO1 [5] is “Uncompetitive”.
`COC(=O)[C@H]1N[C@@H](c2ccccc2)[C@@]2(C(=O)Nc3cc(OC)ccc32)[C@@H]1c1ccccc1` [inhibitor 3]: the inhibition at 100 µM in assay [1] came out at 4.3 ± 0.1%; in assay [2], 6.4 ± 0.8%; in assay [3] it was 27.8 ± 0.3%; in assay [4], 26.7 ± 0.7%. Besides, the “Inhibition type (reversible or irreversible)” value on IDO1 [6] is on record as “reversible”. This compound also had an IC50 against IDO1 [5] of 7.9 ± 1.7 µM. For the same compound, on IDO1 [5] (IC50, methoxyl group at 6-position versus inhibitors 1 and 2), the “increase of inhibitory activity by substituent modification” value was 3 times. In addition, the “IDO1 inhibitory activity (IC50) relative to positive control 4−PI” value on IDO1 [5] (IC50 ratio versus 4−PI) is reported as “~six-fold; also recorded: ~six times”. At IDO1 [5], the affinity corresponds to a Ki of 63.6 ± 3.5 µM. For the same compound, the “Type of Inhibition” value at IDO1 [5] was “Uncompetitive”.
As for `COC(=O)[C@@H]1N[C@H](c2ccc(Br)cc2)[C@]2(C(=O)Nc3ccccc32)[C@H]1c1ccccc1` [inhibitor 4], the inhibition at 100 µM in assay [1] stood at 2.8 ± 0.3%; in assay [2], 1.7 ± 0.5%; in assay [3], 20.7 ± 0.1%; in assay [4] it was 25.6 ± 1.3%. Also, inhibition against IDO1 [5] was half-maximal at 64.6 ± 3.9 µM (IC50). For the same compound, the Ki on IDO1 [5] turned out to be 101 ± 4.4 µM. In addition, the “Type of Inhibition” value on IDO1 [5] is on record as “Uncompetitive”.

(Values after publication PMC9104902, “Spiro-Oxindole Skeleton Compounds Are Efficient Inhibitors for Indoleamine 2,3-Dioxygenase 1: An Attractive Target for Tumor Immunotherapy” (International Journal of Molecular Sciences, 2022).)
